In patent US7071334B2, “6-(2-chloro-6-fluoro-phenyl)-triazolopyrimidines” (priority 2001, dated 2006):

Tests used:
Type in all cases: in vivo
Alternaria solani = assay: Comparison Test 1: Fungicidal control of early blight on tomatoes; conditions: another trial, tomato plants treated with 16 ppm; untreated 90%
Sphaerotheca fuliginea = assay: Comparison Test 5: Protective control of powdery mildew on cucumber; conditions: cucumber seedlings treated with 16 ppm, inoculated next day, assessed after 8 days; untreated 100%
Description: Cucumber seedlings of the variety “Chinesische Schlange” were grown in pots to the 2 leaf stage. The plants were then sprayed to run-off with an aqueous suspension, containing the concentration of active ingredient as described below, prepared from a stock solution containing 10% of the active ingredient, 85% cyclohexanone and 5% emulsifier. The next day the treated plants were inoculated with an aqueous spore suspension of cucumber powdery mildew (Sphaerotheca fuliginea). Then the trial plants were cultivated in a greenhouse at temperatures between 20 and 24° C. and a relative humidity between 60 and 80.%. After 8 days the extent of fungal attack on the leaves was visually assessed as % diseased leaf area.

Septoria tritici = assay: Comparison Trial 3: Fungicidal control of leaf blotch on wheat (protective); conditions: wheat seedlings treated with 63 ppm, inoculated following day, assessed after 2 weeks; untreated 90%
Pyrenophora teres = assay: Comparison Test 2: Control of net blotch on barley; conditions: barley treated with 250 ppm, inoculated next day, assessed after 6 days; untreated 100%

For Cc1nc2ncnn2c(N2CCC(C)CC2)c1-c1c(F)cccc1Cl [E], the “infection (% diseased leaf area)” value (Alternaria solani) was 30% and the “infection (% diseased leaf area)” value (Sphaerotheca fuliginea) was 90%.

For CCN(CC)c1c(-c2c(F)cccc2Cl)c(C#N)nc2ncnn12 [I-5], the “infection (% diseased leaf area)” value (Septoria tritici) was “no infection”.

N#Cc1nc2ncnn2c(C2CCCCC2)c1-c1c(F)cccc1Cl [D] was tested, and the “infection (% diseased leaf area)” value (Pyrenophora teres) was 100%.

COc1nc2ncnn2c(C2CCCCC2)c1-c1c(F)cccc1Cl [C] was tested, and the “infection (% diseased leaf area)” value (Pyrenophora teres) was 100%.
